This passage reports IC50 and EC50 results from US11299494B2, “Substituted imidazo[1,2-b]pyridazines as interleukin-23 and interferon-α modulators” (BRISTOL-MYERS SQUIBB COMPANY, priority 2016, dated 2022).

Experiment [1] has as its system IL-23 Kit225 Reporter (Kit225 T cells with STAT-dependent luciferase reporter). Briefly: Kit225 T cell assay, IL-23 stimulated STAT-dependent luciferase reporter. The format is cell-based. The conditions noted are these: 20 ng/mL human recombinant IL-23, 5-6 hours. On the procedure: (§1) Kit225 T cells with a stably-integrated STAT-dependent luciferase reporter were plated in RPMI (GIBCO) containing 10% heat-inactivated FBS (GIBCO) and 100 U/mL PenStrep (GIBCO). The cells were then stimulated with either 20 ng/mL human recombinant IL-23 or 200 U/mL human recombinant IFNα (PBL InterferonSource) for 5-6 hours. Luciferase expression was measured using the STEADY-GLO® Luciferase Assay System (PROMEGA®) according to the manufacturer's instructions. Inhibition data were calculated by comparison to no inhibitor control wells for 0% inhibition and non-stimulated control wells for 100% inhibition. Dose response curves were generated to determine the concentration required to inhibit 50% of cellular response (IC50) as derived by non-linear regression analysis.

Experiment [2] concerns the target T1, human Tyk2 (amino acids 575-869, His-tagged) (Homo sapiens, UniProt P29597).
T1 construct: made in house
Briefly: Probe displacement assay (scintillation proximity, radiolabeled probe). The format is binding. Particulars: 2.5 nM Tyk2 (575-869), 40 nM tritiated probe, 30 minutes at room temperature. On the procedure: The probe displacement assay is conducted as follows: In a […], test compounds along with recombinantly expressed His-tagged protein corresponding to amino acids 575-869 of human Tyk2 (sequence shown below) at 2.5 nM, 40 nM ((R)—N-(1-(3-(8-methyl-5-(methylamino)-8H-imidazo[4,5-d]thiazolo[5,4-b]pyridin-2-yl)phenyl)ethyl)-2-([^3H]methylsulfonyl)benzamide) (preparation described below) and 80 μg/mL Copper His-Tag scintillation proximity assay beads (Perkin Elmer, Catalog #RPNQ0095) in 50 mM HEPES, pH 7.5, containing 100 μg/mL bovine serum albumin and 5% DMSO were incubated for 30 minutes at room temperature. The amount of radiolabeled probe (preparation described below) bound to Tyk2 was then quantified by scintillation counting, and the inhibition by the test compound calculated by comparison to wells either with no inhibitor (0% inhibition) or without Tyk2 (100% inhibition). The IC50 value is defined as the concentration of test compound required to inhibit radiolabeled probe binding by 50%.
Protein Sequence of recombinant Hig-tagged Tyk2 (575-869):
The preparation of radiolabeled probe, (R)—N-(1-(3-(8-methyl-5-(methylamino)-8H-imidazo[4,5-d]thiazolo[5,4-b]pyridin-2-yl)phenyl)ethyl)-2-([^3H]methylsulfonyl)benzamide, was performed as described below:
2-([^3H]methylsulfonyl)benzoic acid: 2-Mercaptobenzoic acid (2.3 mg, 0.015 mmol) and cesium carbonate (2 mg, 0.006 mmol) were added to a 5 mL round-bottomed flask. The flask was attached to a ported glass vacuum line and anhydrous DMF (0.5 mL) was introduced with magnetic stirring. An ampoule of tritiated methyl iodide (200 mCi, Perkin-Elmer lot 3643419) was added to the reaction flask and stirring was maintained at rt for 3 h. In-process HPLC analysis with radiometric detection indicated 80% conversion to the desired product by comparison with authentic standard. Without purification, the crude product was reacted with mCPBA (10 mg, 0.058 mmol) pre-dissolved in CH2Cl2 (1 mL) at room temperature with stirring. The reaction was stirred for 7 h and additional mCPBA (10 mg, 0.058 mmol) was added. The reaction was stirred for approximately 24 h and HPLC analysis indicated 35-40% conversion to the desired […] product. The crude product was purified by semi-preparative HPLC (Luna Sum C18 (10×250 cm); A: MeOH/H2O=15/85 (0.1% TFA); B: MeOH; 270 nm; 0-8 min 0% B 1 ml/min; 8-10 min 0% B 1-3 ml/min; 10-55 min 0% B 3 ml/min; 55-65 min 0-10% B 3 ml/min; 65-75 min 10-50% B 3 ml/min; 75-80 min 50-100% B 3 ml/min) to give 81 mCi (40% radiochemical yield) of 2-([^3H]methylsulfonyl)benzoic acid product identified by its HPLC co-elution with an authentic standard. The radiochemical purity was measured by HPLC to be 99% (Luna 5u C18 (4.6×150 cm); A: H2O (0.1% TFA); B: MeOH; 1.2 ml/min; 270 nm; 0-10 min 20% B; 10-15 min 20-100% B; 15-25 min 100% B. The product was dissolved in anhydrous acetonitrile to give a final solution activity of 5.8 mCi/mL. (R)—N-(1-(3-(8-methyl-5-(methylamino)-8H-imidazo[4,5-d]thiazolo[5,4-b]pyridin-2-yl)phenyl)ethyl)-2-([^3H]methylsulfonyl)benzamide: A solution of 2-([^3H]methylsulfonyl)benzoic acid (23.2 mCi) in acetonitrile was added to a 5 mL round-bottomed flask which was then attached to a vacuum line and carefully evaporated to dryness. (R)-2-(3-(1-aminoethyl)phenyl)-N,8-dimethyl-8H-imidazo[4,5-d]thiazolo[5,4-b]pyridin-5-amine (prepared as described in WO 2004/106293 and Dyckman et al., Bioorganic and Medicinal Chemistry Letters, 383-386 (2011)) (1.1 mg, 0.0033 mmol) and PyBOP (2 mg, 0.0053 mmol) dissolved in anhydrous DMF (1.5 mL) were added to the flask followed by N,N-diisopropylethylamine (0.010 mL). The resulting clear solution was stirred at room temperature for 18 h. […]

Experiment [3] concerns IFNa Kit225 Reporter (Kit225 T cells with STAT-dependent luciferase reporter). Briefly: Kit225 T cell assay, IFNα stimulated STAT-dependent luciferase reporter. The format is cell-based. The conditions noted are these: 200 U/mL human recombinant IFNα, 5-6 hours. On the procedure: as §1

T1 sequence (P29597 with tags, fused parts or gaps): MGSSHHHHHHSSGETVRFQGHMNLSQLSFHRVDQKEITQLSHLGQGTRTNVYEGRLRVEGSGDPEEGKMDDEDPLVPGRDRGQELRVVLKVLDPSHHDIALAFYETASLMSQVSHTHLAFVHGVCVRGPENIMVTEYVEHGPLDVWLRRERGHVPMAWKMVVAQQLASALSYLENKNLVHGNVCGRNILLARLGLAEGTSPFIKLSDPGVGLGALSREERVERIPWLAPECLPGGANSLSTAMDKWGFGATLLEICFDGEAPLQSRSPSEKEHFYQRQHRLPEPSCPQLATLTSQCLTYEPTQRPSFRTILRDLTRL

With `CNC(=O)c1nn(-c2cc(NC)c3ncc(C(=O)NC4CC4)n3n2)c2ccccc12` [Example 17, N-cyclopropyl-8-(methylamino)-6-(3-(methylcarbamoyl)-1H-indazol-1-yl)imidazo[1,2-b]pyridazine-3-carboxamide], the IC50 in experiment [1] is 355 nM; in experiment [3], 270 nM. Further, in experiment [2], a half-maximal effect (EC50) was put at 16 nM.

For `CNc1cc(-n2cc(C(=O)NCCOC)c3ccccc32)nn2c(C(=O)NC3CC3)cnc12` [Example 8], the figures for the IC50 in experiment [1] and in experiment [3] were 574 nM and 537 nM, respectively. For the same compound, in experiment [2], the EC50 was 37 nM.

For `CNc1cc(-n2nc(C(=O)N(C)C)c3ccccc32)nn2c(C(=O)NC3CC3)cnc12` [Example 19], the IC50 came out at 511 nM in experiment [1] and 474 nM in experiment [3]. Besides, the EC50 in experiment [2] stood at 61 nM.

`CNc1cc(-n2cc(C(=O)NC3CCOCC3)c3ccccc32)nn2c(C(=O)NC3CCC3)cnc12` [Example 11]: the IC50 in experiment [1] is 1370 nM; in experiment [3] it was 689 nM. The EC50 in experiment [2] is 10 nM.

With `CNc1cc(-n2ccc3ccccc32)nn2c(C(=O)NC3CC3)cnc12` [Example 21], the IC50 in experiment [1] is 661 nM; in experiment [3], 433 nM. For the same compound, the EC50 in experiment [2] amounted to 13 nM.

Turning to `CNc1cc(-n2ccc3c(OC)cccc32)nn2c(C(=O)NC3CC3)cnc12` [Example 15], the values for the concentration for half-maximal inhibition (IC50) in experiment [1] and in experiment [3] were 649 nM and 2320 nM, respectively. Moreover, the midpoint of the response in experiment [2], the EC50, lay at 46 nM.

In the case of `CNc1cc(-n2nc(C(=O)N3CCOCC3)c3ccccc32)nn2c(C(=O)NC3CC3)cnc12` [Example 18], the figures for the IC50 in experiment [1] and in experiment [3] were 700 nM and 511 nM, respectively. For the same compound, the EC50 in experiment [2] came out at 40 nM.

With `CNc1cc(-n2cc(C(=O)N3CCOCC3)c3ccccc32)nn2c(C(=O)NC3CCC3)cnc12` [Example 12], the IC50 in experiment [1] stood at 1740 nM; in experiment [3] it was 1290 nM. The EC50 in experiment [2] was found to be 18 nM.

In the case of `CNc1cc(-n2cc(C(=O)Nc3cccnc3)c3ccccc32)nn2c(C(=O)NC3CC3)cnc12` [Example 4], the IC50 in experiment [1] was found to be 1890 nM; in experiment [3], 1230 nM. This compound displayed an EC50 in experiment [2] of 22 nM.

In the case of `CCNC(=O)c1cn(-c2cc(NC)c3ncc(C(=O)NC4CC4)n3n2)c2ccccc12` [Example 2], the IC50 amounted to 813 nM in experiment [1] and 1120 nM in experiment [3]. In addition, in experiment [2], it took 5 nM to reach a half-maximal effect (EC50).

On to `CNc1cc(-n2cc(C(=O)N3CCC(O)CC3)c3ccccc32)nn2c(C(=O)NC3CC3)cnc12` [Example 3], for which the IC50 stood at 12500 nM in experiment [1] and 4790 nM in experiment [3]. In experiment [2], this compound had an EC50 of 19 nM.

On to `CNc1cc(-n2nc(C(=O)NCC(C)(C)O)c3ccccc32)nn2c(C(=O)NC3CC3)cnc12` [Example 20], for which the IC50 in experiment [1] came to 926 nM; in experiment [3], 475 nM. The compound further registered an EC50 in experiment [2] of 75 nM.

Take `CNc1cc(-n2cc(C(=O)Nc3ccccc3)c3ccccc32)nn2c(C(=O)NC3CC3)cnc12` [Example 5]: the IC50 came to 1960 nM in experiment [1] and 4210 nM in experiment [3]. This compound came in with an EC50 in experiment [2] of 25 nM.

With `CNc1cc(-n2cc(C(=O)NCC(C)(C)O)c3ccccc32)nn2c(C(=O)NC3CCC3)cnc12` [Example 10], the results for the IC50 in experiment [1] and in experiment [3] were 1100 nM and 882 nM, respectively. In experiment [2], this compound had an EC50 of 6 nM.

`CNc1cc(-n2cc(C(=O)NCC(C)(C)O)c3ccccc32)nn2c(C(=O)NC3CC3)cnc12` [Example 1, N-cyclopropyl-6-(3-((2-hydroxy-2-methylpropyl)carbamoyl)-1H-indol-1-yl)-8-(methylamino)imidazo[1,2-b]pyridazine-3-carboxamide]: the IC50 was 2100 nM in experiment [1] and 1320 nM in experiment [3]. The EC50 in experiment [2] was 22 nM.

For `CNc1cc(-n2ccc3ncccc32)nn2c(C(=O)NC3CC3)cnc12` [Example 16], the IC50 in experiment [1] was 947 nM; in experiment [3], 1140 nM. Moreover, in experiment [2], it took 123 nM to reach a half-maximal effect (EC50).

In the case of `CNc1cc(-n2cc(C(=O)NCC(C)C)c3ccccc32)nn2c(C(=O)NC3CC3)cnc12` [Example 7], the results for the IC50 in experiment [1] and in experiment [3] were 1640 nM and 924 nM, respectively. The same compound had an EC50 in experiment [2] of 35 nM.

On to `CNc1cc(-n2cc(C(=O)NC(C)C)c3ccccc32)nn2c(C(=O)NC3CC3)cnc12` [Example 9], for which the IC50 in experiment [1] came out at 3090 nM; in experiment [3], 1460 nM. Besides, it took 40 nM to reach a half-maximal effect in experiment [2] (EC50).

As for `CNc1cc(-n2cc(C(=O)NCCC(N)=O)c3ccccc32)nn2c(C(=O)NC3CC3)cnc12` [Example 6], the IC50 in experiment [1] is 12500 nM; in experiment [3] it was 9550 nM. Further, in experiment [2], the EC50 came to 31 nM.

For the compound `CNc1cc(-n2cc(C(=O)O)c3ccccc32)nn2c(C(=O)NC3CCC3)cnc12` [Example 22], the IC50 in experiment [1] and in experiment [3] was 12500 nM in each case. Besides, in experiment [2], the midpoint of the response, the EC50, lay at 48 nM.

Take `CNc1cc(-n2cc(C(=O)NCC(C)(C)O)c3cccnc32)nn2c(C(=O)NC3CC3)cnc12` [Example 13]: the results for the IC50 in experiment [1] and in experiment [3] were 294 nM and 1250 nM, respectively. For the same compound, the EC50 in experiment [2] stood at 25 nM.

On to `CNc1cc(-n2cnc3ccccc32)nn2c(C(=O)NC3CC3)cnc12` [Example 14], for which the concentration for half-maximal inhibition (IC50) was 3640 nM in experiment [1] and 1750 nM in experiment [3]. The EC50 in experiment [2] turned out to be 29 nM.
